We go through 10 molecules from ChEMBL document CHEMBL1201862, “PubChem BioAssay data set” (2004).

Structures are written as SMILES.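 Growth conditions: 96-well plates. Treatment: test compound, 48 hours, 5 concentrations. Analysis: linear interpolation between bracketing concentrations; unreached endpoints set to highest concentration. The concentration for 50% growth inhibition is given as GI50.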 Active and inactive are the calls of the source. No stated cut-off is given here; in the data, active = GI50 up to about 1.1 µM and inactive = higher.

Holding throughout (test): NCI tumour cell line growth inhibition, 48 h
Assay [1] concerns A549.
The subject of assay [2] is HCC 2998.
The subject of assay [3] is OVCAR-8.
Assay [4] has as its system SN12C.
The test system of assay [5] is NCI/ADR-RES.
The test system of assay [6] is NCI-H522.
In assay [7] the test system is NCI-H226.
The subject of assay [8] is SK-OV-3.
The test system of assay [9] is SK-MEL-5.
Assay [10] deals with HL-60.
For assay [11], the system named is MDA-N.
The subject of assay [12] is RPMI-8226.
For assay [13], the system named is CAKI-1.
In assay [14] the test system is SF-539.
The test system of assay [15] is UACC-257.
Assay [16] relates to SF-295.
Assay [17] has as its system DU-145.
For assay [18], the system named is BT-549.
Assay [19] has as its system U-251.
For assay [20], the system named is MOLT-4.

As to `C=C(C)C1=CCC[C@]2(C1)N=C(OC)[C@@H](C(C)C)N=C2OC`, the GI50 in assay [1] is > 100 µM (inactive); in [2], > 100 µM (inactive); in assay [3], > 100 µM (inactive); in [4], > 100 µM (inactive); in [5] it was > 100 µM (inactive); in assay [6], 31.3 µM (inactive). Besides, the GI50 in [7] was > 100 µM (inactive); in assay [8], > 100 µM (inactive); in assay [9], 98.6 µM (inactive); in assay [10], 28.3 µM (inactive); in assay [11], 32.2 µM (inactive); in assay [12], 16.3 µM (inactive). In addition, the GI50 in [13], in [14], in [15], in assay [16], in [17] and in assay [18] was > 100 µM (inactive) each time. Besides, the GI50 in [19] is > 100 µM (inactive); in assay [20], 28.7 µM (inactive).
For `Nc1nc(Cl)c(N)c(NCC2(CO)CC2)n1`, the GI50 in assay [1], in assay [2], in assay [3], in [4], in assay [5] and in assay [6] was > 100 µM (inactive) throughout. The GI50 in assay [7], in assay [8], in [9], in assay [10], in [11] and in assay [12] was > 100 µM (inactive) in each case. For the same molecule, the GI50 in [13], in assay [14], in assay [15], in assay [16], in assay [17] and in assay [18] was > 100 µM (inactive) throughout. The GI50 in assay [19] and in [20] was > 100 µM (inactive) each time.
With `CC(=O)O[C@H]1C#C/C=C\C#CC[C@@H]2C(=O)N[C@@H]12`, the GI50 was 28.7 µM (inactive) in assay [1]; 25.1 µM (inactive) in assay [2]; 19.8 µM (inactive) in [3]; 26 µM (inactive) in assay [4]; 20.7 µM (inactive) in [5]; 19.1 µM (inactive) in assay [6]. Besides, the GI50 in assay [7] was 25.7 µM (inactive); in assay [8], 57.8 µM (inactive); in assay [9] it was 29.9 µM (inactive); in assay [10], 1.99 µM (inactive); in assay [11] it was 81.7 µM (inactive); in assay [12], 21.3 µM (inactive). The GI50 was 4.5 µM (inactive) in assay [13]; 0.726 µM (active) in assay [14]; > 42.4 µM (inactive) in [15]; 24.5 µM (inactive) in assay [16]; 19.2 µM (inactive) in [17]; 30.7 µM (inactive) in [18]. In addition, the GI50 is 20.9 µM (inactive) in assay [19] and 0.231 µM (active) in assay [20].
In the case of `CC(=O)OCc1cncn1S(=O)(=O)c1ccc(C)cc1`, the GI50 in [1] is > 100 µM (inactive); in [2] it was > 62.4 µM (inactive); in [3], > 91.4 µM (inactive); in assay [4], > 91.2 µM (inactive); in assay [5], > 55.5 µM (inactive); in [6], 71.9 µM (inactive). For the same molecule, the GI50 was > 100 µM (inactive) in assay [7]; > 100 µM (inactive) in assay [8]; 24.2 µM (inactive) in [9]; 10.8 µM (inactive) in assay [10]; 9.46 µM (inactive) in [11]; 35 µM (inactive) in assay [12]. The GI50 in assay [13] is > 100 µM (inactive); in assay [14], 86.9 µM (inactive); in assay [15], > 100 µM (inactive); in [16] it was > 100 µM (inactive); in assay [17] it was > 100 µM (inactive); in assay [18], > 83.4 µM (inactive). Besides, the GI50 in assay [19] is > 87.7 µM (inactive); in assay [20] it was 32 µM (inactive).
Turning to `Cc1cc(NS(=O)(=O)c2ccc(NC(=O)c3cccc4c(NNc5ccc(S(=O)(=O)N=C(N)N)cc5)c5ccccc5nc34)cc2)no1`, the GI50 is > 100 µM (inactive) in [1]; 30.5 µM (inactive) in assay [2]; 51.1 µM (inactive) in assay [3]; 70.3 µM (inactive) in assay [4]; > 100 µM (inactive) in [5]; 29 µM (inactive) in assay [6]. Further, the GI50 was 25.2 µM (inactive) in assay [7]; 54.2 µM (inactive) in assay [8]; 44.7 µM (inactive) in assay [9]; 26.7 µM (inactive) in [10]; 68.5 µM (inactive) in assay [11]; 82 µM (inactive) in assay [12]. The GI50 in assay [13] was > 100 µM (inactive); in [14] it was 40.1 µM (inactive); in assay [15], > 100 µM (inactive); in assay [16], 69.7 µM (inactive); in assay [17] it was 51.5 µM (inactive); in assay [18], 57.8 µM (inactive). Also, the GI50 in [19] is 22.6 µM (inactive); in [20], 28 µM (inactive).
With `CCOC(=O)N1N=C(/C(C)=N/OC)C(C)[S+]1[O-]` (stereo not given), the GI50 in [1], in assay [2], in assay [3], in assay [4], in assay [5] and in assay [6] was > 100 µM (inactive) in each case. Further, the GI50 in assay [7], in [8], in assay [9], in [10], in assay [11] and in assay [12] was > 100 µM (inactive) throughout. Also, the GI50 in [13], in assay [14], in assay [15], in assay [16], in assay [17] and in assay [18] was > 100 µM (inactive) throughout. The GI50 in [19] and in [20] was > 100 µM (inactive) each time.
`[O-][n+]1onc(-c2ccccc2)c1CN1CCOCC1`: the GI50 is > 100 µM (inactive) in [1]; > 100 µM (inactive) in assay [2]; > 100 µM (inactive) in assay [3]; > 100 µM (inactive) in assay [4]; > 100 µM (inactive) in assay [5]; 26.4 µM (inactive) in assay [6]. Moreover, the GI50 in assay [7] was > 100 µM (inactive); in assay [8] it was > 100 µM (inactive); in assay [9] it was > 100 µM (inactive); in assay [10], 20.7 µM (inactive); in assay [11], > 100 µM (inactive); in assay [12] it was 76.6 µM (inactive). The GI50 in [13], in assay [14], in [15], in [16], in assay [17] and in assay [18] was > 100 µM (inactive) throughout. The GI50 in [19] is > 100 µM (inactive); in assay [20], 23.3 µM (inactive).
Turning to `COc1ccccc1/C=C1\CCC(Cc2ccccc2)(CN(C)C)C1=O` (stereo not given), the GI50 in assay [1] was 3.44 µM (inactive); in assay [2] it was 3.13 µM (inactive); in [3], 2.33 µM (inactive); in [4], 3.75 µM (inactive); in assay [5] it was 0.989 µM (active); in assay [6], 0.597 µM (active). Further, the GI50 was 23.6 µM (inactive) in assay [7]; 8.36 µM (inactive) in assay [8]; 1.85 µM (inactive) in [9]; 0.471 µM (active) in [10]; 0.685 µM (active) in assay [11]; 0.612 µM (active) in assay [12]. Besides, the GI50 in assay [13] is 2.38 µM (inactive); in [14], 1.52 µM (inactive); in assay [15], 12.3 µM (inactive); in assay [16], 1.34 µM (inactive); in assay [17] it was 7.93 µM (inactive); in assay [18] it was 5 µM (inactive). Moreover, the GI50 in [19] was 0.524 µM (active); in assay [20] it was 1.05 µM (active).
Take `CN(C)CCOC1(CC2CCCCC2)CCC(C(C)(C)C)CC1` (stereo not given): the GI50 in [1] was 5.56 µM (inactive); in [2], 4.38 µM (inactive); in assay [3], 6.82 µM (inactive); in assay [4], 6.46 µM (inactive); in assay [5], 9.62 µM (inactive); in [6], 1.56 µM (inactive). For the same molecule, the GI50 in assay [7] was 6.84 µM (inactive); in assay [8], 11.6 µM (inactive); in assay [9] it was 2.3 µM (inactive); in [10] it was 2.54 µM (inactive); in [11], 4.25 µM (inactive); in assay [12] it was 2.02 µM (inactive). Further, the GI50 in assay [13] is 6.62 µM (inactive); in assay [14], 4.61 µM (inactive); in assay [15], 4.61 µM (inactive); in assay [16], 4.32 µM (inactive); in [17] it was 7.01 µM (inactive); in [18] it was 6.19 µM (inactive). Also, the GI50 in [19] was 4.74 µM (inactive); in assay [20] it was 2.49 µM (inactive).
Consider `Cc1occc1C(=S)Nc1ccc(Cl)c(/C=N/OC(C)(C)C)c1`, for which the GI50 in [1] is 16.6 µM (inactive); in assay [2] it was 16.6 µM (inactive); in assay [3], 18.9 µM (inactive); in [4], 15.1 µM (inactive); in assay [5], 14.7 µM (inactive); in assay [6], 11.7 µM (inactive). Also, the GI50 in assay [7] was 16.9 µM (inactive); in assay [8], 23 µM (inactive); in assay [9], 17.3 µM (inactive); in assay [10], 17.3 µM (inactive); in assay [11], 18.9 µM (inactive); in [12], 16.7 µM (inactive). In addition, the GI50 in assay [13] was 17.2 µM (inactive); in assay [14], 31.2 µM (inactive); in [15], 16.7 µM (inactive); in [16] it was 13.3 µM (inactive); in [17], 19.7 µM (inactive); in assay [18] it was 17.6 µM (inactive). Further, the GI50 was 13.9 µM (inactive) in [19] and 9.51 µM (inactive) in assay [20].
